Measurements reported in ChEMBL document CHEMBL5046245, “Identification of Pyruvate Carboxylase as the Cellular Target of Natural Bibenzyls with Potent Anticancer Activity against Hepatocellular Carcinoma via Metabolic Reprogramming” (J Med Chem, 2022).
pIC50: −log10 of the molar value. Active and inactive are the calls of the source. The rule behind the calls is not given here.

Tests used:
HepG2 [1] = experiment: Effect on cell cycle arrest in human HepG2 cells assessed as increase accumulation of cells in G2/M phase at 20 nM measured upto 24 hrs hrs by propidium iodide staining based flow cytometry analysis; assay type: functional; settings: time hrs <=24, TDE = time-dependent effect
HCCLM3 [2] = experiment: Induction of glycolysis in PC knockout human HCCLM3 cells assessed as intracellular glucose consumption at 10 nM; assay type: functional, cell-based
[3] = Inhibition of pyruvate carboxylase in human HCCLM3 cell lysate measured upto 24 hrs by PC assay kit; assay type: subcellular
HepG2 [4] = experiment: Antiproliferative activity against human HepG2 cells assessed as inhibition of cell growth measured after 48 hrs by MTT assay; assay type: functional, cell-based; settings: HepG2, 48 h
HCCLM3 [5] = experiment: Inhibition of mitochondrial oxidative stress in PC knockout human HCCLM3 cells assessed as reduction in NADH/NAD ratio at 10 nM; assay type: functional, cell-based
HCCLM3 [6] = experiment: Inhibition of epithelial-mesenchymal transition in human HCCLM3 cells assessed as decrease in N-cadherin expression at 0.05 to 1 nM incubated for 24 hrs by Western blot analysis; assay type: functional, cell-based; settings: dose 0.05-1 nM
HCCLM3 [7] = experiment: Effect on ATP production in PC knockout human HCCLM3 cells assessed as reduction in intracellular ATP level at 10 nM by CellTiter-Lumni plus cell viability assay; assay type: functional, cell-based
HepG2 [8] = experiment: Induction of apoptosis in human HepG2 cells assessed as cell shrinkage at 100 nM incubated for 24 hrs by DAPI staining based phase contrast microscopic analysis; assay type: functional
L02 = experiment: Cytotoxicity against human HL7702 cells assessed as inhibition of cell growth measured upto 400 nM measured after 48 hrs by MTT assay; assay type: toxicity, cell-based; settings: l02, 48 h
HCCLM3 [9] = experiment: Induction of glycolysis in human HCCLM3 cells assessed as decrease in level of malate at 5 nM; assay type: functional, cell-based
HepG2 [10] = experiment: Inhibition of pyruvate carboxylase in human HepG2 cells measured at 0.001 to 10 nM for 24 hrs; assay type: cell-based; settings: dose 0.001-10 nM
[11] = Systemic toxicity in NCR-nu/nu mouse bearing human HCCLM3 tumor assessed as pathological change in liver at 25 to 50 mg/kg, ip administered alternate days for 21 days and measured 26 days post implantation by H and E staining based analysis; assay type: organism-based; settings: in vivo, 504 h, dose 25-50 mg/kg, time 21 day
HepG2 [12] = experiment: Induction of apoptosis in human HepG2 cells assessed as nuclear condensation at 100 nM incubated for 24 hrs by DAPI staining based phase contrast microscopic analysis; assay type: functional, cell-based
HCCLM3 [13] = experiment: Induction of mitochondrial oxidative stress in human HCCLM3 cells assessed as accumulation of ROS at 10 nM by DCFH-DA staining based flow cytometry analysis; assay type: functional, cell-based; settings: TDE = time-dependent effect
HCCLM3 [14] = experiment: Inhibition of mitochondrial oxidative stress in PC knockout human HCCLM3 cells assessed as reduction in […] ratio at 10 nM; assay type: functional, cell-based
HCCLM3 [15] = experiment: Induction of glycolysis in human HCCLM3 cells assessed as decrease in level of fumarate at 5 nM; assay type: functional, cell-based
HCCLM3 [16] = experiment: Induction of glycolysis in human HCCLM3 cells assessed as decrease in level of succinate at 5 nM; assay type: functional, cell-based
HepG2 [17] = experiment: Cytotoxicity against human HepG2 cells assessed as cell viability at 62.5 to 250 nM preincubated for 48 hrs by MTT assay; assay type: functional, cell-based; settings: dose 62.5-250 nM
HepG2 [18] = experiment: Effect on cell cycle arrest in human HepG2 cells assessed as decrease in accumulation of cells at G0/G1 phase incubated for 24 hrs by propidium iodide staining based flow cytometry analysis; assay type: functional; settings: dose 20-80 nM
HepG2 [19] = experiment: Effect on cell cycle arrest in human HepG2 cells assessed as decrease in accumulation of cells at G0/G1 phase at 20 nM measured upto 24 hrs hrs by propidium iodide staining based flow cytometry analysis; assay type: functional; settings: time hrs <=24, TDE = time-dependent effect
HCCLM3 [20] = experiment: Induction of glycolysis in human HCCLM3 cells assessed as decrease in level of oxaloacetate at 5 nM; assay type: functional, cell-based
[21] = Toxicity in NCR-nu/nu mouse bearing human HCCLM3 tumor assessed as effect on body weight at 25 to 50 mg/kg, ip administered alternate days for 21 days and measured every three days; assay type: organism-based; settings: in vivo, 504 h, dose 25-50 mg/kg, time 21 day
HCCLM3 [22] = experiment: Antiinvasive activity against human HCCLM3 cells assessed as reduction in cell invasion at 0.05 to 1 nM by matrigel transwell assay; assay type: functional, cell-based; settings: dose 0.05-1 nM
SK-HEP1 [23] = experiment: Inhibition of mesenchymal transition in human SK-HEP1 cells overexpressing PC assessed as effect on fibronectin expression; assay type: functional, cell-based
HCCLM3 [24] = experiment: Induction of apoptosis in human HCCLM3 cells assessed as decrease in cell viability at 20 to 40 nM incubated for 48 hrs in presence of 2 mM OAA MTT assay; assay type: functional, cell-based; settings: dose 20-40 nM
[25] = Systemic toxicity in NCR-nu/nu mouse bearing human HCCLM3 tumor assessed as pathological change in spleen at 25 to 50 mg/kg, ip administered alternate days for 21 days and measured 26 days post implantation by H and E staining based analysis; assay type: organism-based; settings: in vivo, 504 h, dose 25-50 mg/kg, time 21 day
HCCLM3 [26] = experiment: Anti-invasive activity against PC knockout human HCCLM3 cells assessed as suppression of cell invasion at 0.05 nM measured after 48 hrs by transwell assay; assay type: functional, cell-based
HCCLM3 [27] = experiment: Antimigratory activity in human HCCLM3 cells assessed as inhibition of scratch closure at 0.05 to 1 nM measured after 24 hrs by […] assay; assay type: functional, cell-based; settings: dose 0.05-1 nM
SK-HEP1 [28] = experiment: Inhibition of epithelial transition in human SK-HEP1 cells overexpressing PC assessed as effect on E-cadherin expression; assay type: functional, cell-based
SK-HEP1 [29] = experiment: Antiproliferative activity against human SK-HEP1 cells transfected with PC-flag plasmid assessed as reduction in cell viability incubated for 48 hrs by MTT assay; assay type: functional, cell-based
SK-HEP1 [30] = experiment: Antiproliferative activity against human SK-HEP1 cells assessed as inhibition of cell growth measured after 48 hrs by MTT assay; assay type: functional, cell-based; settings: SK-HEP1, 48 h
HCCLM3 [31] = experiment: Induction of apoptosis in human HCCLM3 cells transfected with PC-flag plasmid assessed as reduction in cell viability at 20 to 100 nM incubated for 24 hrs by MTT assay; assay type: functional, cell-based; settings: dose 20-100 nM
[32] = Systemic toxicity in NCR-nu/nu mouse bearing human HCCLM3 tumor assessed as pathological change in lung at 25 to 50 mg/kg, ip administered alternate days for 21 days and measured 26 days post implantation by H and E staining based analysis; assay type: organism-based; settings: in vivo, 504 h, dose 25-50 mg/kg, time 21 day
HepG2 [33] = experiment: Antiproliferative activity against human HepG2 cells assessed as inhibition of cell growth at 10 to 200 nM measured up to 3 days by MTT assay; assay type: functional, cell-based; settings: dose 10-200 nM, time day <=3, TDE = time-dependent effect
[34] = Inhibition of pyruvate carboxylase in human HepG2 cell lysate measured upto 24 hrs by PC assay kit; assay type: subcellular
HCCLM3 [35] = experiment: Antimigratory activity against PC knockout human HCCLM3 cells assessed as suppression of cell migration at 0.5 nM measured after 48 hrs by wound healing assay; assay type: functional, cell-based
HepG2 [36] = experiment: Induction of apoptosis in human HepG2 cells assessed as activation of caspase 3 measured after 24 hrs by Western blot analysis; assay type: functional, cell-based; settings: dose 10-40 nM
HCCLM3 [37] = experiment: Antitumor activity against human HCCLM3 cells xenografted in NCR-nu/nu mouse assessed reduction in tumor growth at 25 to 50 mg/kg, ip administered alternate days for 21 days and measured 26 days post implantation; assay type: functional, organism-based; settings: dose 25-50 mg/kg, time 21.0 day

## COc1ccc(CCc2cc(OC)c(OC)c(OC)c2)cc1O
HepG2 [1]
  Activity: Tde
HCCLM3 [2]
  Activity: Active
[3]
  pIC50: 8.29
HepG2 [4]
  pIC50: 7.00
HCCLM3 [5]
  inhibition: Active
HCCLM3 [6]
  inhibition: Active
HCCLM3 [7]
  Activity: Active
HepG2 [8]
  Activity: Active
L02
  Activity: Non-Toxic
HCCLM3 [9]
  Activity: Active
HepG2 [10]
  inhibition: inactive
[11]
  Activity: Non-Toxic
HepG2 [12]
  Activity: Active
HCCLM3 [13]
  Activity: Tde
HCCLM3 [14]
  inhibition: Active
HCCLM3 [15]
  Activity: Active
HCCLM3 [16]
  Activity: Active
HepG2 [17]
  Activity: Active
HepG2 [18]
  Activity: Dose-Dependent Effect
HepG2 [19]
  Activity: Tde
HCCLM3 [20]
  Activity: Active
[21]
  Activity: Non-Toxic
HCCLM3 [22]
  Activity: Active
SK-HEP1 [23]
  inhibition: inactive
HCCLM3 [24]
  Activity: inactive
[25]
  Activity: Non-Toxic
HCCLM3 [26]
  Activity: Active
HCCLM3 [27]
  Activity: Active
SK-HEP1 [28]
  inhibition: inactive
SK-HEP1 [29]
  Activity: Active
SK-HEP1 [30]
  pIC50: 6.12
HCCLM3 [31]
  Activity: inactive
[32]
  Activity: Non-Toxic
HepG2 [33]
  Activity: Tde
[34]
  pIC50: 8.14
HCCLM3 [35]
  Activity: Active
HepG2 [36]
  Activity: Dose-Dependent Effect
HCCLM3 [37]
  Activity: Active
